From ChEMBL document CHEMBL5715260, “Selectivity Literature for EUbOPEN Chemogenomic Library” (2024)

Experiments:
Set-up in all cases: recommended concentration 1 uM
[1] = target: T1, Hepatocyte nuclear factor 4-alpha (Homo sapiens) (UniProt P41235); test: Selectivity interaction (Reporter gene assay) EUB0000563a HNF4A
T1 sequence (whole entry): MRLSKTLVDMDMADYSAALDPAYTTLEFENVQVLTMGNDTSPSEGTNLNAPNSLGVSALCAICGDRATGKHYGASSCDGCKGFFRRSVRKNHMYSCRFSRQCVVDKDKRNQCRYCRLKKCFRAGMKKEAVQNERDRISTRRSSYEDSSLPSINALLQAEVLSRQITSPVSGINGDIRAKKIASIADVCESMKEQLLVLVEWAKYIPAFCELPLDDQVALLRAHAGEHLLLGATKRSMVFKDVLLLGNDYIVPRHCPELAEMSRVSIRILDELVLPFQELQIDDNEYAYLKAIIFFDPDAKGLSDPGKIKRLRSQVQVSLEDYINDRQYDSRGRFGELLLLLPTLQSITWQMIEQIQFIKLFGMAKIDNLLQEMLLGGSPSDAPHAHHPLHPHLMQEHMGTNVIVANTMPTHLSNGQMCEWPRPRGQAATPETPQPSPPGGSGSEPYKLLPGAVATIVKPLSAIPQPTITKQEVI

[2] = target: Steroidogenic factor 1 (Homo sapiens) (UniProt Q13285); test: Selectivity interaction (Reporter gene assay) EUB0000563a NR5A1
Chain of Steroidogenic factor 1 (Homo sapiens) (Q13285 whole entry): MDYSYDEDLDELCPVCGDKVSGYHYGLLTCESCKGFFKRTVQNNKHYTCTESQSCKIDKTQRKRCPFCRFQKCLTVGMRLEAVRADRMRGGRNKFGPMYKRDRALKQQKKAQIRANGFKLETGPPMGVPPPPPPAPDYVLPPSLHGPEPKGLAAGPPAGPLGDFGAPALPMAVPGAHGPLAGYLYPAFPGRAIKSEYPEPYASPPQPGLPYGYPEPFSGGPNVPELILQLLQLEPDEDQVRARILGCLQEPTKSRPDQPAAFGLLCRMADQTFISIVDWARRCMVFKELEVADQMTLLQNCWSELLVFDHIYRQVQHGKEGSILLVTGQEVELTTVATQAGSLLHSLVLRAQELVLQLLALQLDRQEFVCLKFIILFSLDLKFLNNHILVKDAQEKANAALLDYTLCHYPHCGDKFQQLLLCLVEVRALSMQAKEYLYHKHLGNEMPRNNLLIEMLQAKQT

[3] = target: T2, Nuclear receptor subfamily 2 group C member 1 (Homo sapiens) (UniProt P13056); test: Selectivity interaction (Reporter gene assay) EUB0000563a NR2C1
T2 sequence (whole entry): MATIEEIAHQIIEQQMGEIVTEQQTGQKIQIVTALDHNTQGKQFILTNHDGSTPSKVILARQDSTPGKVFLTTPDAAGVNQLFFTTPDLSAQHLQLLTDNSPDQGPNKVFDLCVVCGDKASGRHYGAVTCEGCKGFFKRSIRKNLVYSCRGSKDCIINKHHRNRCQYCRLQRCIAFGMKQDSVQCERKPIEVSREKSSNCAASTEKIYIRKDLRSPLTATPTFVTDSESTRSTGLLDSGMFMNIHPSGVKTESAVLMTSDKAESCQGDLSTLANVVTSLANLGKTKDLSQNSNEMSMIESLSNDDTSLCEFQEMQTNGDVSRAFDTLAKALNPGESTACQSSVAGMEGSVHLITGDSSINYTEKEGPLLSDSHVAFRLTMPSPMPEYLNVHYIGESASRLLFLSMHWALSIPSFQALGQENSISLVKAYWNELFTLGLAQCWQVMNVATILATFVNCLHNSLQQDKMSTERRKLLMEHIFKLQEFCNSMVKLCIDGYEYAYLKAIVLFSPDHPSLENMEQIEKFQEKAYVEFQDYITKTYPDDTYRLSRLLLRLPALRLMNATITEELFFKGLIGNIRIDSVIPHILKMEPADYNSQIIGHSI

[4] = target: Nuclear receptor subfamily 2 group E member 1 (Homo sapiens) (UniProt Q9Y466); test: Selectivity interaction (Reporter gene assay) EUB0000563a NR2E1
Chain of Nuclear receptor subfamily 2 group E member 1 (Homo sapiens) (Q9Y466 whole entry): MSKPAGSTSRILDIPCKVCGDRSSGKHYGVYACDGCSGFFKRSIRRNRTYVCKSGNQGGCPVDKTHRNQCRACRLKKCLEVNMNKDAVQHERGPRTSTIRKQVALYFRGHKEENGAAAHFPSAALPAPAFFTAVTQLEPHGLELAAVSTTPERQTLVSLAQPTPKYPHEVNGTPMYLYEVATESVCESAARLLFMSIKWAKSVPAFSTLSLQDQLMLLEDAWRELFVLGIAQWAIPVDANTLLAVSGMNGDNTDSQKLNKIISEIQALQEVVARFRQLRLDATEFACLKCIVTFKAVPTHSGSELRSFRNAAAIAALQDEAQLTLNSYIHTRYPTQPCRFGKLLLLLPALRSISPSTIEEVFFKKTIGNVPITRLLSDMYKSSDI

[5] = target: T3, Retinoic acid receptor RXR-alpha (Homo sapiens) (UniProt P19793); test: Selectivity interaction (Reporter gene assay) EUB0000563a RXRA; settings: reference bexarotene 1 uM, Selectivity number of off-targets 0.0, Selectivity number of targets 1.0, Source Knowledge inhouse
T3 sequence (whole entry): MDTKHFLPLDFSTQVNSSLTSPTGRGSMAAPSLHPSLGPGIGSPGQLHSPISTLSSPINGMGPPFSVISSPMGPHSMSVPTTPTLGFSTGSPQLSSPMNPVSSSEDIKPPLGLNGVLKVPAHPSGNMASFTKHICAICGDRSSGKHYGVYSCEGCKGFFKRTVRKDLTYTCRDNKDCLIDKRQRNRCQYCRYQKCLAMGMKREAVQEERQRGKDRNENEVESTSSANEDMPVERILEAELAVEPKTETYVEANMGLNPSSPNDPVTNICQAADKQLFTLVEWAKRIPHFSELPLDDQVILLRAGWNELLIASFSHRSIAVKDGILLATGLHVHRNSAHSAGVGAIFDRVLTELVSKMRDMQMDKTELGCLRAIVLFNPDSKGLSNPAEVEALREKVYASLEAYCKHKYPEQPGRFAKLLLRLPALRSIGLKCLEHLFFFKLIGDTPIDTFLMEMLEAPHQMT

[6] = target: Nuclear receptor subfamily 4immunitygroup A member 1 (Homo sapiens) (UniProt P22736); test: Selectivity interaction (Reporter gene assay) EUB0000563a NR4A1
Chain of Nuclear receptor subfamily 4immunitygroup A member 1 (Homo sapiens) (P22736 whole entry): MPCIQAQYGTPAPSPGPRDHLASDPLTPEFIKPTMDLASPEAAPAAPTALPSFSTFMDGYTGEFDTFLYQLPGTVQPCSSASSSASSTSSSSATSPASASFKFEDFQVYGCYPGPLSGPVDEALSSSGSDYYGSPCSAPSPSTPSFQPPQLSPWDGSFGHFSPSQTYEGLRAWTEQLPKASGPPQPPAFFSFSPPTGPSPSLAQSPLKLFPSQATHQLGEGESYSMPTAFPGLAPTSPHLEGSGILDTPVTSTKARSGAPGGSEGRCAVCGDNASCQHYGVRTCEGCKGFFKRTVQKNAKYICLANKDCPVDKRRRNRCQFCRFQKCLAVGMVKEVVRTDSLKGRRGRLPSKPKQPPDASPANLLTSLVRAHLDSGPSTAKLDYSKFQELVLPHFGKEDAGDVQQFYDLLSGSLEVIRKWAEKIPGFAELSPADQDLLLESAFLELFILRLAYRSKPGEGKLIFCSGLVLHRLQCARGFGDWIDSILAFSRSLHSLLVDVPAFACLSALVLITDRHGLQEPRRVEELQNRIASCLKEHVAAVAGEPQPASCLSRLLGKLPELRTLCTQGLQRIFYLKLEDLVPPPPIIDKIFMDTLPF

[7] = target: T4, Alpha trans-inducing protein (Human alphaherpesvirus 1) (UniProt A0A5J6DW59); test: Selectivity interaction (Reporter gene assay) EUB0000563a UL48
T4 sequence (A0A5J6DW59 as listed by the source): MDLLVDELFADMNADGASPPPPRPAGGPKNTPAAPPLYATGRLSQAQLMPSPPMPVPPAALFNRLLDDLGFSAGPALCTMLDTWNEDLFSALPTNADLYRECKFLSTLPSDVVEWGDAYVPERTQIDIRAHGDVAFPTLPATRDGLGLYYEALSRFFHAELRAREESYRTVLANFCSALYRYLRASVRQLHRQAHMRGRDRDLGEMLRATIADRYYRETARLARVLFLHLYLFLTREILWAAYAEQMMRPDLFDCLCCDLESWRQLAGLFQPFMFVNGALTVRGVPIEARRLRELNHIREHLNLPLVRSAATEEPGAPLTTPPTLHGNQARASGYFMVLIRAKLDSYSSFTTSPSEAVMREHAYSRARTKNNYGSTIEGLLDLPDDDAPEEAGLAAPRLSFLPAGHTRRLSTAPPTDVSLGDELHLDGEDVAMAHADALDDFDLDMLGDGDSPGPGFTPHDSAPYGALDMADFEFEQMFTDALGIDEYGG

[8] = target: Steroidogenic factor 1 (Homo sapiens) (UniProt Q13285); test: Selectivity interaction (Reporter gene assay) EUB0000569a NR5A1
[9] = target: T3, Retinoic acid receptor RXR-alpha (Homo sapiens); test: Selectivity interaction (Reporter gene assay) EUB0000569a RXRA
[10] = target: T5, Peroxisome proliferator-activated receptor gamma (Homo sapiens) (UniProt P37231); test: Selectivity interaction (Reporter gene assay) EUB0000569a PPARG; settings: screened at recom. conc., Selectivity number of off-targets 2.0, Selectivity number of targets 19.0, Source Knowledge inhouse
T5 sequence (whole entry): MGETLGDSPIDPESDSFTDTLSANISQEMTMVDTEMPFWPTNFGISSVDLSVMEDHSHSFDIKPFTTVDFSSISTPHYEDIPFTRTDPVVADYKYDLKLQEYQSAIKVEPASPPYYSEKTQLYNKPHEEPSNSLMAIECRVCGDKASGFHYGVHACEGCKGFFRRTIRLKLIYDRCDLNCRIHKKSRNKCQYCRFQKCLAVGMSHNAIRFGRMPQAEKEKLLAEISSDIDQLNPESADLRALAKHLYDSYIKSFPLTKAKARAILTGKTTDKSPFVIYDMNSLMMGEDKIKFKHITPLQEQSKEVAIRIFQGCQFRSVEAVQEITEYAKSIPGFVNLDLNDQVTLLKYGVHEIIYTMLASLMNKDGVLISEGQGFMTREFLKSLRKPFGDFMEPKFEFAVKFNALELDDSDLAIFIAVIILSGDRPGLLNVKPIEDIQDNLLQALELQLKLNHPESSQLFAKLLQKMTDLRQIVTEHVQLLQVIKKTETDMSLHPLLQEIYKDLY

[11] = target: Peroxisome proliferator-activated receptor alpha (Homo sapiens) (UniProt Q07869); test: Selectivity interaction (Reporter gene assay) EUB0000569a PPARA; settings: screened at recom. conc., Selectivity number of off-targets 2.0, Selectivity number of targets 19.0, Source Knowledge inhouse
Chain of Peroxisome proliferator-activated receptor alpha (Homo sapiens) (Q07869 whole entry): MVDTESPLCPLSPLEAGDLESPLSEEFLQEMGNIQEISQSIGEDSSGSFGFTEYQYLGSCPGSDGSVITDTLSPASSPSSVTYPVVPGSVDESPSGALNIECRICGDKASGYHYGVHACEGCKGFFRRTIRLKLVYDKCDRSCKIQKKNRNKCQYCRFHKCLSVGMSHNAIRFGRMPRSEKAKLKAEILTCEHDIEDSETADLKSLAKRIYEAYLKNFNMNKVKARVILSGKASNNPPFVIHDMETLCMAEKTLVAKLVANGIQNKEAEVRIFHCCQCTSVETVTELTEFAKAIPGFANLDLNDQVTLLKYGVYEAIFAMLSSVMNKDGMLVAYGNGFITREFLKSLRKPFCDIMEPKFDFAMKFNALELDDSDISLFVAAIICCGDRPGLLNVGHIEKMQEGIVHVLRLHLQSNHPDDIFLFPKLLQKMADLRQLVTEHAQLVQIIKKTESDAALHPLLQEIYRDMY

[12] = target: Nuclear receptor subfamily 4immunitygroup A member 1 (Homo sapiens) (UniProt P22736); test: Selectivity interaction (Reporter gene assay) EUB0000569a NR4A1
[13] = target: T2, Nuclear receptor subfamily 2 group C member 1 (Homo sapiens); test: Selectivity interaction (Reporter gene assay) EUB0000569a NR2C1
[14] = target: T4, Alpha trans-inducing protein (Human alphaherpesvirus 1); test: Selectivity interaction (Reporter gene assay) EUB0000569a UL48
[15] = target: Nuclear receptor subfamily 2 group E member 1 (Homo sapiens) (UniProt Q9Y466); test: Selectivity interaction (Reporter gene assay) EUB0000569a NR2E1
[16] = target: T1, Hepatocyte nuclear factor 4-alpha (Homo sapiens); test: Selectivity interaction (Reporter gene assay) EUB0000569a HNF4A
[17] = target: T2, Nuclear receptor subfamily 2 group C member 1 (Homo sapiens); test: Selectivity interaction (Reporter gene assay) EUB0000570a NR2C1
[18] = target: Steroidogenic factor 1 (Homo sapiens) (UniProt Q13285); test: Selectivity interaction (Reporter gene assay) EUB0000570a NR5A1
[19] = target: T1, Hepatocyte nuclear factor 4-alpha (Homo sapiens); test: Selectivity interaction (Reporter gene assay) EUB0000570a HNF4A
[20] = target: Nuclear receptor subfamily 2 group E member 1 (Homo sapiens) (UniProt Q9Y466); test: Selectivity interaction (Reporter gene assay) EUB0000570a NR2E1
[21] = target: T3, Retinoic acid receptor RXR-alpha (Homo sapiens); test: Selectivity interaction (Reporter gene assay) EUB0000570a RXRA; settings: reference bexarotene 1 uM, Selectivity number of off-targets 0.0, Selectivity number of targets 1.0, Source Knowledge inhouse
[22] = target: Nuclear receptor subfamily 4immunitygroup A member 1 (Homo sapiens) (UniProt P22736); test: Selectivity interaction (Reporter gene assay) EUB0000570a NR4A1
[23] = target: T4, Alpha trans-inducing protein (Human alphaherpesvirus 1); test: Selectivity interaction (Reporter gene assay) EUB0000570a UL48
[24] = target: Nuclear receptor subfamily 2 group E member 1 (Homo sapiens) (UniProt Q9Y466); test: Selectivity interaction (Reporter gene assay) EUB0000565a NR2E1
[25] = target: T3, Retinoic acid receptor RXR-alpha (Homo sapiens); test: Selectivity interaction (Reporter gene assay) EUB0000565a RXRA; settings: reference bexarotene 1 uM, Selectivity number of off-targets 0.0, Selectivity number of targets 1.0, Source Knowledge inhouse
[26] = target: Steroidogenic factor 1 (Homo sapiens) (UniProt Q13285); test: Selectivity interaction (Reporter gene assay) EUB0000565a NR5A1
[27] = target: Retinoic acid receptor beta (Homo sapiens) (UniProt P10826); test: Selectivity interaction (Reporter gene assay) EUB0000565a RARB; settings: screened at recom. conc., Selectivity number of off-targets 0.0, Selectivity number of targets 19.0, Source Knowledge inhouse
Chain of Retinoic acid receptor beta (Homo sapiens) (P10826 whole entry): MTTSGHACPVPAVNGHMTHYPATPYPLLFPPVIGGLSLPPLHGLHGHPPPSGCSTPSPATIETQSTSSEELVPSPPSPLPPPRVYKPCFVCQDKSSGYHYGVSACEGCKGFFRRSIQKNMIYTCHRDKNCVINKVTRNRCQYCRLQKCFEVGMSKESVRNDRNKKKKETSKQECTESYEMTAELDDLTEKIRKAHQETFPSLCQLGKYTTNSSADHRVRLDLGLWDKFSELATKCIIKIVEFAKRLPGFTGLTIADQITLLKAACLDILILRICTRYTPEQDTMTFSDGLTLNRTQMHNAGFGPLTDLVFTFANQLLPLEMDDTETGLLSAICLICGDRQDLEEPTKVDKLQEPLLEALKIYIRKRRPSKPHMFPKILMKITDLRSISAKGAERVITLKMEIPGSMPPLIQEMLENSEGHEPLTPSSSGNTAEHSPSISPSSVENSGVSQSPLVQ

[28] = target: T4, Alpha trans-inducing protein (Human alphaherpesvirus 1); test: Selectivity interaction (Reporter gene assay) EUB0000565a UL48
[29] = target: Nuclear receptor subfamily 4immunitygroup A member 1 (Homo sapiens) (UniProt P22736); test: Selectivity interaction (Reporter gene assay) EUB0000565a NR4A1
[30] = target: T1, Hepatocyte nuclear factor 4-alpha (Homo sapiens); test: Selectivity interaction (Reporter gene assay) EUB0000565a HNF4A
[31] = target: T2, Nuclear receptor subfamily 2 group C member 1 (Homo sapiens); test: Selectivity interaction (Reporter gene assay) EUB0000565a NR2C1
[32] = target: T3, Retinoic acid receptor RXR-alpha (Homo sapiens); test: Selectivity interaction (Reporter gene assay) EUB0000567a RXRA
[33] = target: T1, Hepatocyte nuclear factor 4-alpha (Homo sapiens); test: Selectivity interaction (Reporter gene assay) EUB0000567a HNF4A
[34] = target: Nuclear receptor subfamily 2 group E member 1 (Homo sapiens) (UniProt Q9Y466); test: Selectivity interaction (Reporter gene assay) EUB0000567a NR2E1
[35] = target: T2, Nuclear receptor subfamily 2 group C member 1 (Homo sapiens); test: Selectivity interaction (Reporter gene assay) EUB0000567a NR2C1
[36] = target: Steroidogenic factor 1 (Homo sapiens) (UniProt Q13285); test: Selectivity interaction (Reporter gene assay) EUB0000567a NR5A1
[37] = target: T4, Alpha trans-inducing protein (Human alphaherpesvirus 1); test: Selectivity interaction (Reporter gene assay) EUB0000567a UL48
[38] = target: Nuclear receptor subfamily 4immunitygroup A member 1 (Homo sapiens) (UniProt P22736); test: Selectivity interaction (Reporter gene assay) EUB0000567a NR4A1

CCOC(=O)c1ccc(C#Cc2ccc3c(c2)C(C)(C)CCS3)nc1
Remaining activity [1]: 0.921
Remaining activity [2]: 0.803
Remaining activity [3]: 0.92
Remaining activity [4]: 0.703
Relative activation [5]: 0.694%
Remaining activity [6]: 0.9
P-value [7]: 0.00141

Cc1cc(SCc2sc(-c3ccc(C(F)(F)F)c(F)c3)nc2C)ccc1OCC(=O)O
Fold activation [8]: 1.02
Relative activation [9]: 0.693%
Fold activation [10]: 10.5
Fold activation [11]: 14.8
Fold activation [12]: 1.17
Fold activation [13]: 1.31
P-value [14]: 0.0031
Fold activation [15]: 1.36
Fold activation [16]: 1.11

CN(CCOc1ccc(C[C@H](Nc2ccccc2C(=O)c2ccccc2)C(=O)O)cc1)c1ccccn1
Fold activation [17]: 1.03
Remaining activity [18]: 0.849
Remaining activity [19]: 0.831
Remaining activity [20]: 0.776
Relative activation [21]: 0.731%
Remaining activity [22]: 0.85
P-value [23]: 1.12e-05

CC1(C)C(=O)C(C)(C)c2cc(C(=O)Nc3ccc(C(=O)O)cc3)ccc21
Remaining activity [24]: 0.923
Relative activation [25]: 0.48%
Remaining activity [26]: 0.944
Fold activation [27]: 13.5
P-value [28]: 0.000922
Remaining activity [29]: 0.925
Remaining activity [30]: 0.954
Fold activation [31]: 1

CC1(C)CCC(C)(C)c2cc(C(=O)Nc3ccc(C(=O)O)cc3)ccc21
Relative activation [32]: 0.898%
Fold activation [33]: 1.07
Remaining activity [34]: 0.642
Remaining activity [35]: 0.976
Remaining activity [36]: 0.908
P-value [37]: 0.0055
Fold activation [38]: 1.04
